Usually IC50 stands for the concentration that gives 50% inhibition. A lower IC50 goes with greater potency in that assay.

This assay addresses Mouse ERK2 protein (Mus musculus (Mouse), UniProt P63085). The experiment in a line: Coupled MEK1/ERK2 IMAP assay or Active ERK2 IMAP assay. In kind it is biochemical. The settings on record: Table 1, class symbols, 30 μM ATP. Here is the method: 14 μl of kinase buffer (10 mM Tris.HCl pH 7.2, 10 mM MgCl2, 0.01% Tween-20, 1 mM DTT) containing 0.4 ng unphosphorylated Mouse ERK2 protein is added to each well of a black 384-well assay plate. […] DMSO concentration during initial incubation is 6.7%. […] DMSO concentration during ERK activation was 4%. After one hour, reactions are terminated by addition of 60 μl IMAP detections beads in binding buffer (Molecular Devices). Binding is allowed to equilibrate for 30 minutes before reading the plate on an LJL Analyst Fluorescence Polarization plate reader.
Activated ERK2 activity was also determined in the IMAP assay format using the procedure outlined above. […] Reactions proceeded for 30 minutes before termination by addition of […] IMAP detection beads in binding buffer. Plates were read as above after 30 minute binding equilibration.

Chain of Mouse ERK2 protein (P63085 whole entry): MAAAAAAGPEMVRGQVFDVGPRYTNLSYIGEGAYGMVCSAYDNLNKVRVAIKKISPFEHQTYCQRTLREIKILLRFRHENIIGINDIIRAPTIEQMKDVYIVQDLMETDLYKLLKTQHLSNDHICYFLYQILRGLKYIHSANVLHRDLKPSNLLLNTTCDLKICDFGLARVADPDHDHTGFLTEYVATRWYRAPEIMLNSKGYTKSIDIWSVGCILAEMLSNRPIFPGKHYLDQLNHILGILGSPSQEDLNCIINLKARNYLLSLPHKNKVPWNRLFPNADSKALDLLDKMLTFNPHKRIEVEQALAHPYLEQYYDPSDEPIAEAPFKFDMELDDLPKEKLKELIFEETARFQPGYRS

`CC(C)(C)OC(=O)N1C[C@@H](NC(=O)N2CCc3[nH]nc(-c4ccncc4)c3C2)[C@H](c2cccc(-c3ccccc3)c2)C1` (racemic) [Compound 165, 1,1-dimethylethyl trans-3-[1,1′-biphenyl]-3-yl-4-[[[1,4,6,7-tetrahydro-3-(4-pyridinyl)-5H-pyrazolo[4,3-c]pyridin-5-yl]carbonyl]amino]-1-pyrrolidinecarboxylate] had an IC50 of 0.101 to 1 µM.
Then `O=C(N[C@@H]1CNC[C@H]1c1cccc(-c2ccccc2)c1)N1CCc2[nH]nc(-c3ccncc3)c2C1` (racemic) [Compound 167, N-[trans-4-[1,1′-biphenyl]-3-yl-3-pyrrolidinyl]-1,4,6,7-tetrahydro-3-(4-pyridinyl)-5H-pyrazolo[4,3-c]pyridine-5-carboxamide], with less than 0.02 µM; and `CN1C[C@@H](NC(=O)N2CCc3[nH]nc(-c4ccncc4)c3C2)[C@H](c2cccc(-c3ccccc3)c2)C1` (racemic) [Compound 169, N-[trans-4-[1,1′-biphenyl]-3-yl-1-methyl-3-pyrrolidinyl]-1,4,6,7-tetrahydro-3-(4-pyridinyl)-5H-pyrazolo[4,3-c]pyridine-5-carboxamide], with less than 0.02 µM.
The same measure for `O=C(N[C@@H]1CCCNC1)N1CCc2[nH]nc(-c3ccncc3)c2C1` (single isomer, unassigned) [Compound 171]: 0.101 to 1 µM.
`O=C(N[C@@H]1CCCN(Cc2ccccc2)C1)N1CCc2[nH]nc(-c3ccncc3)c2C1` (single isomer, unassigned) [Compound 175] registered an IC50 of less than 0.02 µM.
The compound `O=C(NC1CC[C@H]2CC[C@@H]1N2Cc1c(F)cccc1F)N1CCc2[nH]nc(-c3ccc4nccn4c3)c2C1` (stereo in doubt) [Compound 182, N-[8-[(2,6-difluorophenyl)methyl]-8-azabicyclo[3.2.1]oct-2-yl]-1,4,6,7-tetrahydro-3-imidazo[1,2-a]pyridin-6-yl-5H-pyrazolo[4,3-c]pyridine-5-carboxamide] had an IC50 of 0.101 to 1 µM.
Regarding `CCn1cc(Cl)c(NC(=O)C2CCc3[nH]nc(-c4ccncc4)c3C2)n1` (stereo not shown) [Compound 2, N-(4-chloro-1-ethyl-1H-pyrazol-3-yl)-4,5,6,7-tetrahydro-3-(4-pyridinyl)-1H-indazole-5-carboxamide], the IC50 was in the range of 1 to 100 µM.
Then `COc1cccc(CC(=O)N2CCc3[nH]nc(-c4ccncc4)c3C2)c1` [Compound 3, 4,5,6,7-tetrahydro-5-[(3-methoxyphenyl)acetyl]-3-(4-pyridinyl)-1H-pyrazolo[4,3-c]pyridine], with 1 to 100 µM; and `Nc1nc(CC(=O)N2CCc3[nH]nc(-c4ccncc4)c3C2)cs1` [Compound 5, 5-[(2-amino-4-thiazolyl)-acetyl]-4,5,6,7-tetrahydro-3-(4-pyridinyl)-1H-pyrazolo[4,3-c]pyridine], with 1 to 100 µM; and `Cn1cnc(CC(=O)N2CCc3[nH]nc(-c4ccncc4)c3C2)c1` [Compound 6, 4,5,6,7-tetrahydro-5-[(1-methyl-1H-imidazol-4-yl)acetyl]-3-(4-pyridinyl)-1H-pyrazolo[4,3-c]pyridine], with 1 to 100 µM.
The same measure for `O=C(Cc1cccs1)N1CCc2[nH]nc(-c3ccncc3)c2C1` [Compound 7, 4,5,6,7-tetrahydro-3-(4-pyridinyl)-5-(2-thienylacetyl)-1H-pyrazolo[4,3-c]pyridine]: 1 to 100 µM; for `O=C(Cc1ccccc1Cl)N1CCc2[nH]nc(-c3ccncc3)c2C1` [Compound 8, 5-[(2-chlorophenyl)acetyl]-4,5,6,7-tetrahydro-3-(4-pyridinyl)-1H-pyrazolo[4,3-c]pyridine]: 0.101 to 1 µM; for `O=C(Cc1cccc(Br)c1)N1CCc2[nH]nc(-c3ccncc3)c2C1` [Compound 9, 5-[(3-bromophenyl)acetyl]-4,5,6,7-tetrahydro-3-(4-pyridinyl)-1H-pyrazolo[4,3-c]pyridine]: 0.101 to 1 µM.
Then `COc1ccccc1CC(=O)N1CCc2[nH]nc(-c3ccncc3)c2C1` [Compound 10, 4,5,6,7-tetrahydro-5-[(2-methoxyphenyl)acetyl]-3-(4-pyridinyl)-1H-pyrazolo[4,3-c]pyridine], with 1 to 100 µM.
Compound `Cc1nc(CC(=O)N2CCc3[nH]nc(-c4ccncc4)c3C2)c(C)s1` [Compound 11, 5-[(2,5-dimethyl-4-thiazolyl)acetyl]-4,5,6,7-tetrahydro-3-(4-pyridinyl)-1H-pyrazolo[4,3-c]pyridine] registered an IC50 of 1 to 100 µM.
Then `CC1(C(=O)Nc2ccccc2OCc2cccnc2)CCc2[nH]nc(-c3ccncc3)c2C1` (stereo not shown) [Compound 14, 4,5,6,7-tetrahydro-5-methyl-3-(4-pyridinyl)-N-[2-(3-pyridinylmethoxy)phenyl]-1H-indazole-5-carboxamide], with 1 to 100 µM; and `COc1ccccc1NC(=O)C1(C)CCc2[nH]nc(-c3ccncc3)c2C1` (stereo not shown) [Compound 15, 4,5,6,7-tetrahydro-N-(2-methoxyphenyl)-5-methyl-3-(4-pyridinyl)-1H-indazole-5-carboxamide], with 1 to 100 µM; and `CC(C)C(Cn1ccnc1)NC(=O)C1(C)CCc2[nH]nc(-c3ccncc3)c2C1` (stereo not shown) [Compound 16, 4,5,6,7-tetrahydro-N-[1-(1H-imidazoL-1-ylmethyl)-2-methylpropyl]-5-methyl-3-(4-pyridinyl)-1H-indazole-5-carboxamide], with 1 to 100 µM.
With `CC1(C(=O)Nc2ccccc2OC(F)(F)F)CCc2[nH]nc(-c3ccncc3)c2C1` (stereo not shown) [Compound 17, 4,5,6,7-tetrahydro-5-methyl-3-(4-pyridinyl)-N-[2-(trifluoromethoxy)phenyl]-1H-indazole-5-carboxamide], the half-maximal inhibitory concentration (IC50) fell in the range of 1 to 100 µM.
Then `COc1ncccc1NC(=O)C1(C)CCc2[nH]nc(-c3ccncc3)c2C1` (stereo not shown) [Compound 18, 4,5,6,7-tetrahydro-N-(2-methoxy-3-pyridinyl)-5-methyl-3-(4-pyridinyl)-1H-indazole-5-carboxamide], with 1 to 100 µM.
`CN(C)CCOc1ccccc1NC(=O)C1(C)CCc2[nH]nc(-c3ccncc3)c2C1` (stereo not shown) [Compound 19, N-[2-[2-(dimethylamino)-ethoxy]phenyl]-4,5,6,7-tetrahydro-5-methyl-3-(4-pyridinyl)-1H-indazole-5-carboxamide] displayed a concentration for half-maximal inhibition (IC50) of 1 to 100 µM.
The same measure for `CC1(C(=O)Nc2ccccc2OCC2CCCO2)CCc2[nH]nc(-c3ccncc3)c2C1` (stereo not shown) [Compound 20, 4,5,6,7-tetrahydro-5-methyl-3-(4-pyridinyl]-N-[2 [(tetrahydro-2-furanyl)-methoxy]phenyl]-1H-indazole-5-carboxamide]: 1 to 100 µM; for `CC1(C(=O)Nc2ccccc2OCCN2CCCCC2)CCc2[nH]nc(-c3ccncc3)c2C1` (stereo not shown) [Compound 21, 4,5,6,7-tetrahydro-5-methyl-N-[2-[2-(1-piperidinyl)ethoxy]-phenyl]-3-(4-pyridinyl)-1H-indazole-5-carboxamide]: 1 to 100 µM.
Then `CN(C)c1ccc(CC(=O)N2CCc3[nH]nc(-c4ccncc4)c3C2)cc1` [Compound 22, 5[[4-(dimethylamino)-phenyl]acetyl]-4,5,6,7-tetrahydro-3-(4-pyridinyl)-1H-pyrazolo[4,3-c]pyridine], with 0.101 to 1 µM; and `COc1ccc(OC)c(CC(=O)N2CCc3[nH]nc(-c4ccncc4)c3C2)c1` [Compound 23, 5-[(2,5-dimethoxyphenyl)-acetyl]-4,5,6,7-tetrahydro-3-(4-pyridinyl)-1H-pyrazolo[4,3-c]pyridine], with 0.101 to 1 µM.
The same measure for `O=C(Cc1ccccc1F)N1CCc2[nH]nc(-c3ccncc3)c2C1` [Compound 24, 5-[(2-fluorophenyl)acetyl]-4,5,6,7-tetrahydro-3-(4-pyridinyl)-1H-pyrazolo[4,3-c]pyridine]: 0.101 to 1 µM; for `O=C(Cc1cccnc1)N1CCc2[nH]nc(-c3ccncc3)c2C1` [Compound 25, 4,5,6,7-tetrahydro-3-(4-pyridinyl)-5-(3-pyridinylacetyl)-1H-pyrazolo[4,3-c]pyridine]: 0.101 to 1 µM; for `O=C(Cc1ccccc1C(F)(F)F)N1CCc2[nH]nc(-c3ccncc3)c2C1` [Compound 26]: 0.101 to 1 µM.
Compound `O=C(Cc1c(F)cccc1Cl)N1CCc2[nH]nc(-c3ccncc3)c2C1` [Compound 27, 5-[(2-chloro-6-fluorophenyl)acetyl]-4,5,6,7-tetrahydro-3-(4-pyridinyl)-1H-pyrazolo[4,3-c]pyridine] registered an IC50 of 0.101 to 1 µM.
Then `O=C(N1CCc2[nH]nc(-c3ccncc3)c2C1)C1(c2ccc(Cl)cc2Cl)CC1` [Compound 28, 5-[[1-(2,4-dichlorophenyl)-cylcopropyl]carbonyl]-4,5,6,7-tetrahydro-3-(4-pyridinyl)-1H-pyrazolo[4,3-c]pyridine], with 0.101 to 1 µM; and `O=C(Cc1ccccc1Oc1ccccc1)N1CCc2[nH]nc(-c3ccncc3)c2C1` [Compound 29, 4,5,6,7-tetrahydro-5-[(2-phenoxyphenyl)acetyl]-3-(4-pyridinyl)-1H-pyrazol[4,3-c]pyridine], with 0.101 to 1 µM; and `O=C(Cc1ccccn1)N1CCc2[nH]nc(-c3ccncc3)c2C1` [Compound 30, 4,5,6,7-tetrahydro-3-(4-pyridinyl)-5-(2-pyridinylacetyl)-1H-pyrazolo[4,3-c]pyridine], with 0.101 to 1 µM.
Regarding `CS(=O)(=O)c1cccc(CC(=O)N2CCc3[nH]nc(-c4ccncc4)c3C2)c1` [Compound 31], the half-maximal inhibitory concentration (IC50) was in the range of 0.101 to 1 µM.
Then `O=C(Cc1ccc(-c2ccccc2)cc1)N1CCc2[nH]nc(-c3ccncc3)c2C1` [Compound 32, 5-([1,1′-biphenyl]-4-ylacetyl)-4,5,6,7-tetrahydro-3-(4-pyridinyl)-1H-pyrazolo[4,3-c]pyridine], with 0.101 to 1 µM.
